The subject of assay [1] is melanoma cells. As to the kind of experiment: Mitotracker Red assay of mitochondrial activity in irradiated cells. The following applies: irradiated cells with mitochondrial respiration blocked, versus non-irradiated control (Dose 0); FIG. 2A. The format is cell-based, human. On the procedure: Mitotracker Red CMXRos (Invitrogen-M7512) was used for mitotracker assay. Stock solution was prepared in anhydrous DMSO, and the aliquots were stored in −30° C. Stock solution was diluted with culture media prior to the assay. Cells were treated with Mitotracker working solution (200 nM) and incubated for 15 minutes (37° C., 5% CO2). Labeling solution was removed and cells were washed with 1×PBS followed by fixing with 2% PFA (paraformaldehyde) for 30 minutes at room temperature in dark. Cells were washed with 1×PBS and mounted using DAPI and images were taken immediately.
It is well-known that melanoma cells up-regulate mitochondrial respiration to partly overcome the damage caused by radiation treatment (Rafehi, H et al., “Clonogenic assay: adherent cells.” J. Vis. Exp. 2011 Mar. 13;(49). pii: 2573. doi: 10.3791/2573). In this study, Mitotracker® Red was used to determine mitochondrial activity in irradiated melanoma cells and HEM. Mitotracker® Red is a cell permeant mitochondrial probe that diffuses through the plasma membrane of active mitochondria and is retained there even after fixation of cells. That is, mitochondrial activity is a direct measure of the amount of fluorescent Mitotracker® Red accumulated within the mitochondria.
A Mitotracker® Red CMXRos (Invitrogen, Carlsbad, Calif., Catalog #M7512 or equivalent) assay was performed according to manufacturer's instructions. […]

In assay [2] the test system is melanoma cell lines WC00046, WC00060 and WC00081. Description: Cell survival (cell count) after irradiation with or without mitochondrial inhibitors. The format is cell-based, human. The conditions noted are these: compared to untreated cells, FIG. 1B; for cell killing of melanoma cells: inhibitor combined with high dose rate 2,400 mu/min, 5 μM in medium; for survival rates: melanoma cells, doses 2 Gy, 4 Gy and 8 Gy at 2,400 mu/min and 400 mu/min. On the procedure:
Three melanoma cell lines; WC00046, WC00060 and WC00081 were used in these examples, in which WC00046 was the most aggressive cell line (metastatic stage II), WC00060 was least aggressive (stage I, primary tumor site) and WC00081 was the medium aggressive (malignant melanoma primary site), purchased from Coriell Institute of Camden, N.J. The primary HEM (human epidermal melanocytes) was purchased from ScienCell Research Laboratories of Carlsbad, Calif. (#2220). Melanoma cells were grown in RPMI (Invitrogen) with 10% FBS, 1% Penicillin/Streptomycin. HEM cells were grown in Mel-M media (ScienCell Research Laboratories, Catalog number 2201) supplemented with 5 ML, Mel GS (ScienCell Research Laboratories, Catalog number 2252), 2.5 ML FBS (ScienCell Research Laboratories, Catalog number 0002) and 5 ML penicillin/Streptomycin solution (ScienCell Research Laboratories, Catalog number 0503), which is a complete medium designed for optimal growth of normal human dermal-derived melanocytes in vitro.
Two mitochondrial inhibitors Oligomycin (Sigma Aldrich # O4876) and Rotenone (Sigma Aldrich #R8875) were used. An optimal concentration of 0.5 uM were used for both melanoma cell lines and HEM added to the growth medium and removed after the irradiation. Dilutions were made in DMSO according to manufacturer's instructions.
Melanoma cell lines WC00046, WC00060 and WC00081 (purchased from Coriell Institute of Camden, N.J.) were seeded at 5×10^5 cells in T-25 culture flasks (BD-Falcon, Franklin Lakes, N.J., Catalog #356536 or equivalent) containing either RPMI media (Invitrogen, Carlsbad, Calif., Catalog #11875119 or equivalent) with 10% fetal bovine serum (FBS; ATCC Catalog #30-2020 or equivalent), 1% Penicillin/Streptomycin (GIBCO, Carlasbad, Calif., Catalog #15140 or equivalent) or RPMI media with 10% FBS, 1% Penicillin/Streptomycin, 5 μM Oligomycin (Sigma-Aldrich, St. Louis, Mo., Catalog #04876) or RPMI media with 10% FBS, 1% Penicillin/Streptomycin, 5 μM Rotenone (Sigma-Aldrich, St. Louis, Mo., Catalog #R8875). Human Epidermal Melanocytes (HEM) (ScienCell Research Laboratories, Carlsbad, Calif., Catalog #2220) were seeded at 5×10^5 cells in a T-25 culture flask (BD-Falcon, Franklin Lakes, N.J., Catalog #356536 or equivalent) containing either Mel-M media (ScienCell Research Laboratories, Carlsbad, Calif., Catalog #2201) or Mel-M media, 5 μM Oligomycin or Mel-M media, 5 μM Rotenone. Cells were allowed to settle and adhere to the T-25 culture flasks by overnight incubation in a humidified incubator at 37° C., 5% CO2. […] Cells were counted and cell survival (%) was recorded two (2) days and seven (7) days post radiation.

Assay [3] deals with melanoma cells. As to the kind of experiment: MTT cell proliferation assay in irradiated cells. It counts as cell-based, human. The conditions noted are these: seven days post-irradiation, relative to irradiation alone, FIG. 2B. On the procedure:
MTT assay was carried out to measure the cell proliferation in radiated cells. Cells were seeded in […] and incubated with MTT assay reagent (tetrazolium dye). MTT assay is based on the ability of metabolically active cells to reduce the yellow tetrazolium salt (MTT) by to form insoluble purple formazan crystals, which are solubilized by the addition of a detergent and quantified (i.e., color). The MTT Cell Proliferation Assay measures the cell proliferation rate and conversely, when metabolic events lead to apoptosis or necrosis, the reduction in cell viability. The number of assay steps has been minimized as much as possible to expedite sample processing. The MTT Reagent yields low background absorbance values in the absence of cells. For each cell type the linear relationship between cell number and signal produced is established, thus allowing an accurate quantification of changes in the rate of cell proliferation.
An MTT (tetrazolium dye) assay was performed to measure cell proliferation in irradiated melanoma cells and HEM. The MTT assay is based on the ability of metabolically active cells to reduce yellow tetrazolium salt (MTT) to insoluble purple formazan crystals. The formazan crystals are solubized in detergent and quantified by colorimetric analysis. […]

Assay [4] has as its system Human Epidermal Melanocytes (HEM). Description: Cell survival (cell count) after irradiation with or without mitochondrial inhibitors. The format is cell-based. The conditions noted are these: doses 2 Gy, 4 Gy and 8 Gy at 2,400 mu/min and 400 mu/min, compared to untreated cells, FIG. 1B. On the procedure:
Three melanoma cell lines; WC00046, WC00060 and WC00081 were used in these examples, in which WC00046 was the most aggressive cell line (metastatic stage II), WC00060 was least aggressive (stage I, primary tumor site) and WC00081 was the medium aggressive (malignant melanoma primary site), purchased from Coriell Institute of Camden, N.J. The primary HEM (human epidermal melanocytes) was purchased from ScienCell Research Laboratories of Carlsbad, Calif. (#2220). Melanoma cells were grown in RPMI (Invitrogen) with 10% FBS, 1% Penicillin/Streptomycin. […]
Melanoma cell lines WC00046, WC00060 and WC00081 (purchased from Coriell Institute of Camden, N.J.) were seeded at 5×10^5 cells in T-25 culture flasks (BD-Falcon, Franklin Lakes, N.J., Catalog #356536 or equivalent) containing either RPMI media (Invitrogen, Carlsbad, Calif., Catalog #11875119 or equivalent) with 10% fetal bovine serum (FBS; ATCC Catalog #30-2020 or equivalent), 1% Penicillin/Streptomycin (GIBCO, Carlasbad, Calif., Catalog #15140 or equivalent) or RPMI media with 10% FBS, 1% Penicillin/Streptomycin, 5 μM Oligomycin (Sigma-Aldrich, St. Louis, Mo., Catalog #04876) or RPMI media with 10% FBS, 1% Penicillin/Streptomycin, 5 μM Rotenone (Sigma-Aldrich, St. Louis, Mo., Catalog #R8875). […] Cells were counted and cell survival (%) was recorded two (2) days and seven (7) days post radiation.

The subject of assay [5] is melanoma cells WC00046, WC00060 and WC00081. Description: Colony formation (clonogenic) assay after irradiation. The conditions noted are these: FIG. 4B. It counts as cell-based, human. On the procedure:
(§1) Radiated cells were washed with 1× phosphate buffer saline (PBS), trypsinized and harvested in corning tubes (15 ml, BD Falcon). These cells were serially diluted (1:100, 1:1000, 1:10000) and plated in Petri-dishes (Tissue culture Petri dishes, BD Falcon) with complete media and allowed to grow colonies for 7-21 days. Colonies were stained with Hematoxylin for 30 min after fixing the cells in 100% ethanol for about 20-30 min. Petridishes with stained colonies were washed in water, dried overnight and counts were recorded.
(§2) The colony formation assay, or clonogenic assay, is used to determine the ability of a cell to proliferate (i.e., maintain its reproductive ability to form a colony or clone). This assay has been widely used in radiation biology to assess the effects of ionizing radiation on cells (Sadagopan, R. et al., “Characterization and clinical evaluation of a novel IMRT quality assurance system.” Journal of Applied Clinical Medical Physics 10.2 (2009)). In this study, three (3) melanoma cell lines were used to compare the effects of different radiation dose rates on cell proliferation. Melanoma cell lines were selected based on their known resistance to radiation therapy. Human epidermal melanocytes (HEM) were used to determine the effect of ionizing radiation on normal cells.
(§3) Cells were maintained and irradiated as described in Example 1. Irradiated cells were washed with 1× phosphate buffer saline (PBS) (Sigma Aldrich, St. Louis, Mo., Catalog No. P5493, or equivalent), trypsinized and harvested in 15 mL conical tubes (BD-Falcon, Franklin Lakes, N.J., Catalog #352095 or equivalent). The cells were serially diluted (1:100, 1:1000, 1:10000) and plated in Petri-dishes (BD-Falcon, Franklin Lakes, N.J., Catalog #351007 or equivalent) with the appropriate complete media and allowed to grow colonies for 7-21 days. Colonies were stained with hematoxylin (Sigma-Aldrich, St. Louis, Mo., Catalog #H9627 or equivalent) for 30 minutes after fixing the cells in 100% ethanol (VWR, Radnor, Pa., Catalog #71006-012 or equivalent) for about 20-30 minutes. Petridishes with stained colonies were washed in water, dried overnight and colony counts were recorded.

In a further assay the test system is HEM. Described as above. It counts as cell-based, human. The following applies: HEM treated with mitochondrial inhibitors and irradiated; FIG. 4B. How it is done: as §1, §2, §3
[6] abbreviates: WC00046, 2,400 mu/min, treated with mitochondrial inhibitors.
[7] abbreviates: WC00046, WC00060 and WC00081, 2,400 mu/min, relative to irradiation alone.

With `CC[C@H]1/C=C/C=C/C[C@@H](C)[C@H](O)[C@@](C)(O)C(=O)[C@@H](C)[C@H](O)[C@@H](C)C(=O)[C@@H](C)[C@H](O)[C@@H](C)/C=C/C(=O)O[C@@H]2[C@H](C)[C@H](CC1)O[C@]1(CC[C@H](C)[C@H](C[C@@H](C)O)O1)[C@H]2C` [Oligomycin], the “mitochondrial activity (Mitotracker Red fluorescence)” value in the assay on melanoma cells [1] is on record as “reduced below basal levels”. Further, in assay [2], the “cell killing of melanoma cells” value is given as “augment the cell killing”. Besides, the survival rates entry in assay [2] and in assay [4] was “significantly lower survival rates” in each case. Further, the “cell survival (%)” value in the assay with melanoma cells [3] was “further reduced”; in assay [5] (setting [6]) it was 25%; in assay [5] (setting [7]), “further reduced”. In addition, in the assay on HEM, the viability and proliferation entry is “retained viability and proliferation”.
Take `C=C(C)[C@H]1Cc2c(ccc3c2O[C@@H]2COc4cc(OC)c(OC)cc4[C@@H]2C3=O)O1` [Rotenone]: the “mitochondrial activity (Mitotracker Red fluorescence)” value in the assay on melanoma cells [1] is listed as “reduced below basal levels”. In addition, the “cell killing of melanoma cells” value in assay [2] is given as “augment the cell killing”. Besides, the survival rates result in assay [2] and in assay [4] was “significantly lower survival rates” throughout. The “cell survival (%)” value in the assay on melanoma cells [3] was “further reduced”; in assay [5] (setting [6]) it was 25%; in assay [5] (setting [7]), “further reduced”. For the same compound, the viability and proliferation result in the assay on HEM was “retained viability and proliferation”.

These data come from patent US10195466B2, “Method for treating skin cancer using radiation therapy” (HACKENSACK UNIVERSITY MEDICAL CENTER, priority 2014, dated 2019).
